The values below come from patent US6916472B2, “PON3 and uses thereof” (Regents of the University of Michigan, priority 2000, dated 2005).

One experiment deals with T1, rabbit serum PON3 (Oryctolagus cuniculus, UniProt Q9BGN0).
T1 construct: from tissue; host or cells: rabbit serum
Description: Hydrolytic activity of purified rabbit serum PON3 with paraoxon, aromatic esters and lactones. Format: biochemical. The conditions noted are these: for PON3 (rate of hydrolysis of substrate) / PON3 hydrolytic activity with substrate (in words): purified rabbit serum PON3; for PON3 (rate of hydrolysis of substrate): 25° C.; for PON1/PON3 Ratio: ratio of hydrolysis rates of PON1 and PON3. As for the experimental part:
(§1) Esterase activities with substrates: phenyl acetate, S-phenyl thioacetate, α-naphtyl acetate and paraoxon were measured as described by Kuo and La Du (Kuo and La Du, Drug Metab. Dispos., 23:335 [1995]; Qan et al., Drug Metab Dispos, 19:100-106 [1991]. For example, arylesterase activity is measured using a molar difference extinction coefficient (difference in extinction coefficients of phenol vs. phenol acetate) of 1,310 M^−1 cm^−1, at 270 nm with 1.0 mM phenyl acetate in 50 mM Tris/HCl (pH 8.0):1.0 mM CaCl2 buffer (Gan et al., supra). For the hydrolysis of thiophenyl acetate, the substrate is dissolved in methanol, and the reaction cuvettes contain 1.0 mM substrate in 50 mM Tris/HCl (pH 8.0):1.0 mM CaCl2 buffer. The product, thiophenol, reacts with 5,5′-dithiobis(2-nitrobenzoic acid), and activity is calculated from a molar difference extinction coefficient of 13,600 M^−1 cm^−1 at 412 nm (Augustinsson and Axenfors, Anal. Biochem., 48:428 [1972]). For the hydrolysis of α-naphtyl acetate, substrates are dissolved in ethylene glycol monomethyl ether, and the reaction cuvettes contain 0.5 mM substrate in 50 mM Tris/HCl (pH 8.0):1.0 mM CaCl2 buffer. Enzymatic activities are calculated from the molar extinction coefficients of 23,170 M^−1 cm^−1 at 235 nm. PON activity is measured with 1.0 mM paraoxon in 50 mM glycine:NaOH buffer (pH 10.5):1.0 mM CaCl2 with or without 1.0 M NaCl. Enzymatic activities were calculated from a molar extinction coefficient of 18,290 M^−1 cm^−1 at 412 nm (Gan et al., supra). All enzymatic assays are performed at 25° C. For each assay, 5 μl of purified PON (1.5-2.5 μg of enzyme protein) is added to an assay cuvette. For all substrates, one unit of enzymatic activity is defined as 1 μmol of substrate hydrolyzed/min.
(§2) Hydrolysis of aromatic lactones was monitored by the increase in UV absorbance at 270 nm (dihydrocoumarin), 274 nm (2-coumaranone), and 290 nm (homogentisic acid lactone). Lactones were purchased from Sigma. In a typical experiment a cuvette contained 1 mM substrate (from a […] stock solution, dissolved in methanol) in 50 mM Tris/HCl (pH 8.0), 1 mM CaCl2 and 5-20 μl enzyme source in a total volume of 1 ml. The molar difference extinction coefficients (difference in extinction coefficients of substrate and product) used to calculate the rate of hydrolysis were 1295, 876, and 816 M^−1 cm^−1 for dihydrocoumarin, 2-coumaranone and homogentisic acid lactone, respectively.
(§3) The hydrolysis of other lactones was followed by a calorimetric assay with phenol red (Billecke, et al., Chem Biol Interact, 119-120:251-256, [1999]). The reaction cuvette contained 1 mM substrate (from a 100 mM stock solution, dissolved in methanol) in 2 mM HEPES at starting pH 8.0, 1 mM CaCl2, 0.004% (106 μM) phenol red, 0.005% bovine albumin, and 5-20 μl enzyme solution in a total volume of 1 ml. The rate of acid production was followed by monitoring the increase in absorbance at 422 nm as the color changed from red to yellow. The rate of hydrolysis was derived from a calibration curve obtained using known amounts of HCl.
(§4) All the above assays (Sections, A, B, and C) were performed at 25° C. using a dual beam Cary 3E […] Spectrophotometer (Varian). Reference cuvettes containing the appropriate buffer plus substrate were used in each assay to correct for any spontaneous hydrolysis.

Another experiment concerns the target T2, rabbit serum PON1 (Oryctolagus cuniculus, UniProt P27170).
T2 construct: PON 1 was purified further by pooling the fractions with highest arylesterase activity from a second DEAE column; from tissue; host or cells: rabbit serum
The experiment can be described thus: Hydrolytic activity of purified rabbit serum PON1 with paraoxon, aromatic esters and lactones. The conditions noted are these: 25° C. Type of experiment: biochemical. On the procedure:
as §1, §2, §3, §4

The target in a further experiment is T3, PON3 (Oryctolagus cuniculus, UniProt Q9BGN0).
T3 construct: from tissue; host or cells: rabbit serum
T3 sequence (Q9BGN0 2-354 limits assumed): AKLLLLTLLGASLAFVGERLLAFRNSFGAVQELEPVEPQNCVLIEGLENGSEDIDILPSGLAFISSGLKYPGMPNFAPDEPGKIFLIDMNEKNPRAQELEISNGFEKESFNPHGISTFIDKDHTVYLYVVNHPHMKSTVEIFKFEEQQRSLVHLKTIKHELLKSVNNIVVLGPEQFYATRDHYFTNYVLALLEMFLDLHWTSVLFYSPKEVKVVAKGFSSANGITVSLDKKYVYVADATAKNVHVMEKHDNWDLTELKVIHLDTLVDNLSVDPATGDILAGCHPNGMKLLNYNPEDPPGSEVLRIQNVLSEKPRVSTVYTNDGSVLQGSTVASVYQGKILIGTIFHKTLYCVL
The experiment can be described thus: Hydrolysis of statin lactones by PON3. Format: biochemical, rabbit. As for the experimental part: The hydrolysis of the statin lactones (mevastatin, lovastatin and simvastatin) was analyzed by high performance liquid chromatography (HPLC) using a Beckman System Gold HPLC with a Model 126 Programmable Solvent Module, a Model 168 Diode Array Detector set at 238 nm, a Model 7125 Rheodyne manual injector valve with a 20 μl loop, and a Beckman ODS Ultrasphere column (C 18, 250×4.6 mm, 5 μm). Lovastatin (Mevacor) and simvastatin were purchased as 20 mg tablets from Merck, from which the lactones were extracted with chloroform, evaporated to dryness and redissolved in methanol. Mevastatin was purchased from Sigma.
In a final volume of 1 ml, 10-200 μl of enzyme solution and 10 μl of substrate solution in methanol (0.5 mg/ml) were incubated at 25° C. in 50 mM Tris/HCl (pH 7.6), 1 mM CaCl2. […]
Samples were eluted isocratically at a flow rate of 1.0 ml/min with a mobile phase consisting of the following: A=acetic acid/acetonitrile/water (2:249:249, v/v/v) and B=acetonitrile, in A/B ratios of 50/50, 45/55 and 40/60 for mevastatin, lovastatin and simvastatin, respectively. […] Response factors for the acid products were calculated from the peak heights after complete alkaline hydrolysis of the lactones in 0.02 M NAOH for 2-24 hours at 25° C.

T2 sequence (P27170 whole entry Y185T): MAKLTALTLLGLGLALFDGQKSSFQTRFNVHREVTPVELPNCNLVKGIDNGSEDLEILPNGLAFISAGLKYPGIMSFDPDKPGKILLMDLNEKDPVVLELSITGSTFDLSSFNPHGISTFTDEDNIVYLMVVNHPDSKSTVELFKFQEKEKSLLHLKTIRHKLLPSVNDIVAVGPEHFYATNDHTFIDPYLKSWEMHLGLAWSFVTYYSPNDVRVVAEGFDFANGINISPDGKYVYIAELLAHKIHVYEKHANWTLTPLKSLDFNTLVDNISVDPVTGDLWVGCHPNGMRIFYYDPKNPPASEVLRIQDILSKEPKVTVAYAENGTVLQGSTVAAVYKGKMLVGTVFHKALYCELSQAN
T1 sequence (Q9BGN0 2-354 limits assumed): as the sequence (Q9BGN0 2-354 limits assumed) above

Take `O=C1Cc2ccccc2O1` [2-Coumaronone]: at rabbit serum PON3, the “PON3 (rate of hydrolysis of substrate)” value was found to be 32.4 µmol/min/mg and the “PON1/PON3 Ratio” value was found to be 4.0. Further, on rabbit serum PON1, the “PON1 (rate of hydrolysis of substrate)” value was 136.6 µmol/min/mg.

In the case of `CCOP(=O)(OCC)Oc1ccc([N+](=O)[O-])cc1` [Paraoxon], at rabbit serum PON3, the “PON3 hydrolytic activity with substrate (in words)” value is given as “very poor substrates”, the “PON3 (rate of hydrolysis of substrate)” value is <0.0075^1 μmol/min/mg and the “PON1/PON3 Ratio” value worked out at 638. Moreover, the “PON1 (rate of hydrolysis of substrate)” value at rabbit serum PON1 came to 4.76 µmol/min/mg.

Regarding `CC(=O)Oc1ccccc1` [Phenyl Acetate], on rabbit serum PON3, the “PON3 hydrolytic activity with substrate (in words)” value is “very poor substrates”, the “PON3 (rate of hydrolysis of substrate)” value was 1.0 µmol/min/mg and the “PON1/PON3 Ratio” value came out at 769. On rabbit serum PON1, the “PON1 (rate of hydrolysis of substrate)” value amounted to 768.7 µmol/min/mg.

As for `CC[C@H](C)C(=O)O[C@H]1C[C@@H](C)C=C2C=C[C@H](C)[C@H](CC[C@@H]3C[C@@H](O)CC(=O)O3)[C@H]21` [lovastatin], the “hydrolysis of lactone drug by PON3 (in words)” value at PON3 is listed as “can also hydrolyse”.

For the compound `CC1=CCC(=O)O1` [α-Angelica lactone], on rabbit serum PON3, the “PON3 (rate of hydrolysis of substrate)” value is 3.4 µmol/min/mg and the “PON1/PON3 Ratio” value is reported as 52. In addition, the “PON1 (rate of hydrolysis of substrate)” value at rabbit serum PON1 is 175.1 µmol/min/mg.

In the case of `O=C1Oc2ccccc2C1Br` (stereo not drawn) [α-Br-2-Coumaronone], on rabbit serum PON3, the “PON3 (rate of hydrolysis of substrate)” value amounted to 2.8 µmol/min/mg and the “PON1/PON3 Ratio” value amounted to 97. The “PON1 (rate of hydrolysis of substrate)” value on rabbit serum PON1 was 270.1 µmol/min/mg.

Consider `CC(=O)Oc1ccc2ccccc2c1` [β-Naphtyl Acetate], for which, on rabbit serum PON3, the “PON3 (rate of hydrolysis of substrate)” value amounted to 4.6 µmol/min/mg and the “PON1/PON3 Ratio” value came to 30. Further, the “PON1 (rate of hydrolysis of substrate)” value at rabbit serum PON1 came out at 138.8 µmol/min/mg.

In the case of `CCCCC1OC(=O)CC1C` (stereo not drawn) [β-methyl-γ-octalactone], at rabbit serum PON3, the “PON3 (rate of hydrolysis of substrate)” value was 3 µmol/min/mg and the “PON1/PON3 Ratio” value came out at 12. The “PON1 (rate of hydrolysis of substrate)” value at rabbit serum PON1 was found to be 34.8 µmol/min/mg.

For the compound `CCCCCCC1CCC(=O)O1` (stereo not drawn) [γ-Decalactone], on rabbit serum PON3, the “PON3 (rate of hydrolysis of substrate)” value turned out to be 50.2 µmol/min/mg and the “PON1/PON3 Ratio” value amounted to 1.8. Moreover, the “PON1 (rate of hydrolysis of substrate)” value at rabbit serum PON1 stood at 92 µmol/min/mg.

Regarding `CCCC1CCC(=O)O1` (stereo not drawn) [γ-Heptalactone], at rabbit serum PON3, the “PON3 (rate of hydrolysis of substrate)” value is 8.6 µmol/min/mg and the “PON1/PON3 Ratio” value amounted to 12. In addition, the “PON1 (rate of hydrolysis of substrate)” value on rabbit serum PON1 came out at 107 µmol/min/mg.

As to `CCCCCC1CCC(=O)O1` (stereo not drawn) [γ-Nonalactone], on rabbit serum PON3, the “PON3 (rate of hydrolysis of substrate)” value is 60 µmol/min/mg and the “PON1/PON3 Ratio” value is 1.3. Also, the “PON1 (rate of hydrolysis of substrate)” value at rabbit serum PON1 amounted to 79.6 µmol/min/mg.

Turning to `CCCCC1CCC(=O)O1` (stereo not drawn) [γ-Octalactone], on rabbit serum PON3, the “PON3 (rate of hydrolysis of substrate)” value came to 29 µmol/min/mg and the “PON1/PON3 Ratio” value was determined as 3.6. In addition, at rabbit serum PON1, the “PON1 (rate of hydrolysis of substrate)” value turned out to be 104.5 µmol/min/mg.

In the case of `CCCCCCCC1CCC(=O)O1` (stereo not drawn) [γ-Undecalactone], at rabbit serum PON3, the “PON3 (rate of hydrolysis of substrate)” value was 44.2 µmol/min/mg and the “PON1/PON3 Ratio” value was found to be 2. In addition, the “PON1 (rate of hydrolysis of substrate)” value at rabbit serum PON1 is 87.4 µmol/min/mg.

Consider `CC1CCC(=O)O1` (stereo not drawn) [γ-Valerolactone], for which, at rabbit serum PON3, the “PON3 (rate of hydrolysis of substrate)” value turned out to be 3.0 µmol/min/mg and the “PON1/PON3 Ratio” value is recorded as 26. The “PON1 (rate of hydrolysis of substrate)” value at rabbit serum PON1 was determined as 78.4 µmol/min/mg.

With `C=C1CCC(=O)O1` [γ-methylene-γ-butyrolactone], at rabbit serum PON3, the “PON3 (rate of hydrolysis of substrate)” value turned out to be 12 µmol/min/mg and the “PON1/PON3 Ratio” value stood at 52. Moreover, at rabbit serum PON1, the “PON1 (rate of hydrolysis of substrate)” value was 622 µmol/min/mg.

In the case of `O=C1CCC(c2ccccc2)O1` (stereo not drawn) [γ-phenyl-γ-butyrolactone], at rabbit serum PON3, the “PON3 (rate of hydrolysis of substrate)” value was 20.4 µmol/min/mg and the “PON1/PON3 Ratio” value came out at 10. The “PON1 (rate of hydrolysis of substrate)” value at rabbit serum PON1 amounted to 203 µmol/min/mg.

`CCCCCC1CCCC(=O)O1` (stereo not drawn) [δ-Decalactone]: on rabbit serum PON3, the “PON3 (rate of hydrolysis of substrate)” value turned out to be 73 µmol/min/mg and the “PON1/PON3 Ratio” value came to 1.8. On rabbit serum PON1, the “PON1 (rate of hydrolysis of substrate)” value was determined as 134.8 µmol/min/mg.

As for `CCCCCCCC1CCCC(=O)O1` (stereo not drawn) [δ-Dodecalactone], on rabbit serum PON3, the “PON3 (rate of hydrolysis of substrate)” value stood at 98.2 µmol/min/mg and the “PON1/PON3 Ratio” value is reported as 1.8. Also, at rabbit serum PON1, the “PON1 (rate of hydrolysis of substrate)” value amounted to 179.4 µmol/min/mg.

With `CC1CCCC(=O)O1` (stereo not drawn) [δ-Hexalactone], at rabbit serum PON3, the “PON3 (rate of hydrolysis of substrate)” value is 3.6 µmol/min/mg and the “PON1/PON3 Ratio” value is listed as 58. The “PON1 (rate of hydrolysis of substrate)” value on rabbit serum PON1 stood at 207 µmol/min/mg.

Take `CCCCC1CCCC(=O)O1` (stereo not drawn) [δ-Nonalactone]: at rabbit serum PON3, the “PON3 (rate of hydrolysis of substrate)” value came to 44 µmol/min/mg and the “PON1/PON3 Ratio” value came to 3.4. Besides, the “PON1 (rate of hydrolysis of substrate)” value at rabbit serum PON1 was 142 µmol/min/mg.

δ-Undecalactone: at rabbit serum PON3, the “PON3 (rate of hydrolysis of substrate)” value is 90 µmol/min/mg and the “PON1/PON3 Ratio” value is listed as 2.1. Moreover, the “PON1 (rate of hydrolysis of substrate)” value on rabbit serum PON1 was found to be 186.8 µmol/min/mg.
